Laboratory results: patent EP4606376A1 (ShanghaiTech University, priority 2022, dated 2024)

Legend:
SARS-CoV-2 Delta = experiment: microbe, parasite or virus in culture; assay type: cell-based; settings: Severe acute respiratory syndrome coronavirus 2, 24 h
TMPRSS2 = TMPRSS2 (Homo sapiens, UniProt O15393); experiment: In vitro enzyme activity inhibition assay (TMPRSS2, substrate Boc-Gln-Ala-Arg-AMC); settings: cross-validation; FIG. 2B
Description: (§1) Columns 15 to 20 were added with an equivalent volume of DMSO as a positive control group, and columns 18 to 20 were added with an equivalent volume of buffer as a negative control group. […] The 384-well plate was placed in a microplate reader for detection, and the slope of fluorescence intensity increase in the first 2 minutes of the enzymatic reaction was taken as the activity of the protein for subsequent calculation.

Cathepsin L = Cathepsin L (Homo sapiens, UniProt P07711); experiment: In vitro enzyme activity inhibition assay (Cathepsin L, substrate Cbz-Phe-Arg-AMC); assay type: biochemical; settings: cross-validation; FIG. 2A
Chain of Cathepsin L (P07711 114-333): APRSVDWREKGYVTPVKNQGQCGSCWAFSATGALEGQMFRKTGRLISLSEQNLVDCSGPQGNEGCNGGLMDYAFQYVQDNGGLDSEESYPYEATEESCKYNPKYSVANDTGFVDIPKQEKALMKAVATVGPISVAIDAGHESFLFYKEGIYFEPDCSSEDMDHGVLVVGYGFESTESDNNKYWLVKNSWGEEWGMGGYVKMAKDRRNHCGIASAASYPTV
Description: as §1

Chain of TMPRSS2 (O15393 whole entry): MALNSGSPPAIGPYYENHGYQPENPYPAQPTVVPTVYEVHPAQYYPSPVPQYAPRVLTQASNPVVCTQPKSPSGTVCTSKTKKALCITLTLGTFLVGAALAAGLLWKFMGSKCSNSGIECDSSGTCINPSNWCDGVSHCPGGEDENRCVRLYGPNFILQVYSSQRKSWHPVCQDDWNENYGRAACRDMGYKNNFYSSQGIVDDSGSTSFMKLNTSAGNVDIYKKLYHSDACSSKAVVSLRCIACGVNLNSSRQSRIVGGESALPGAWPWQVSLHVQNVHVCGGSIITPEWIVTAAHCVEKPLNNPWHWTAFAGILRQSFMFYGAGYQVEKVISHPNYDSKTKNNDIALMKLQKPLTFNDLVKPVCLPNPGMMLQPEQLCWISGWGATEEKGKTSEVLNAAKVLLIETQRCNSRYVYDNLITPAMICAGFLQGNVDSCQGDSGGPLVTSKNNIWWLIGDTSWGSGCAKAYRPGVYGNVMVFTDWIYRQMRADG

CN1CCN(C(=O)N[C@@H](Cc2ccccc2)C(=O)N[C@H](/C=C/S(=O)(=O)c2ccccc2)CCc2ccccc2)CC1 [K777]
EC50 (SARS-CoV-2 Delta; […], combination at a molar ratio of 1:1, FIG. 3): 660 nM | inhibitory activity against TMPRSS2 (TMPRSS2): no inhibitory activity

N=C(N)Nc1ccc(C(=O)Oc2ccc3cc(C(=N)N)ccc3c2)cc1 [Nafamostat]
inhibitory activity against Cathepsin L (Cathepsin L): no inhibitory activity | EC50 (SARS-CoV-2 Delta): 20 nM
